ChEMBL document CHEMBL4706559, “New indolylarylsulfone non-nucleoside reverse transcriptase inhibitors show low nanomolar inhibition of single and double HIV-1 mutant strains” (Eur J Med Chem, 2020)

Tests used:
[1] = system: Human immunodeficiency virus 1; assay: Antiviral activity against HIV-1 NL4-3 infected in human MT-4 cells assessed as virus induced cytopathic effect by MTT assay; assay type: functional, organism-based; settings: Human immunodeficiency virus 1, NL4-3, MT4
[2] = Cytotoxicity against human MT-4 cells assessed as reduction in cell viability by MTT assay; assay type: cell-based, MT4
[3] = Selectivity ratio of CC50 for human MT4 cells to EC50 for antiviral activity against HIV-1 NL4-3 infected in human MT4 cells; assay type: toxicity, cell-based; settings: read-out: Ratio CC50/EC50
[4] = system: Human immunodeficiency virus 1; assay: Antiviral activity against HIV1 harboring RT K103N mutant infected in human MT4 cells assessed as protection against virus-induced cytopathic effect by MTT assay; assay type: functional, organism-based; settings: Human immunodeficiency virus 1, MT4
[5] = system: Human immunodeficiency virus 1; assay: Antiviral activity against HIV1 harboring RT Y181C mutant infected in human MT4 cells assessed as protection against virus-induced cytopathic effect by MTT assay; assay type: functional, organism-based; settings: Human immunodeficiency virus 1, MT4
[6] = system: Human immunodeficiency virus 1; assay: Antiviral activity against HIV1 harboring RT Y188L mutant infected in human MT4 cells assessed as protection against virus-induced cytopathic effect by MTT assay; assay type: functional, organism-based; settings: Human immunodeficiency virus 1, MT4
[7] = system: Human immunodeficiency virus 1; assay: Antiviral activity against HIV1 harboring RT K103N/Y181C double mutant infected in human MT4 cells assessed as protection against virus-induced cytopathic effect by MTT assay; assay type: functional, organism-based; settings: Human immunodeficiency virus 1, MT4
[8] = system: Human immunodeficiency virus 1; assay: Resistance index, ratio of EC50 for antiviral activity against HIV1 harboring RT Y188L mutant infected in human MT4 cells to EC50 for antiviral activity against HIV1 NL4-3 infected in human MT4 cells; assay type: functional
[9] = system: Human immunodeficiency virus 1; assay: Resistance index, ratio of EC50 for antiviral activity against HIV1 harboring RT K103N/Y181C double mutant infected in human MT4 cells to EC50 for antiviral activity against HIV1 NL4-3 infected in human MT4 cells; assay type: functional
[10] = target: Human immunodeficiency virus type 1 reverse transcriptase (Human immunodeficiency virus 1, UniProt Q72547); assay: Inhibition of RNA-dependent DNA polymerase activity of wild type recombinant HIV-1 His-tagged p66/p51 reverse transcriptase assessed as inhibition of [3H]dTTP incorporation using poly(rA)/oligo(dT) as templates incubated for 15 mins by MicroBeta scintillation counting method
[11] = target: Human immunodeficiency virus type 1 reverse transcriptase (Human immunodeficiency virus 1, UniProt Q72547, K103N); assay: Inhibition of RNA-dependent DNA polymerase activity of recombinant HIV-1 p66/p51 reverse transcriptase K103N mutant assessed as inhibition of [3H]dTTP incorporation using poly(rA)/oligo(dT) as templates incubated for 15 mins by MicroBeta scintillation counting method
[12] = Inhibition of RNA-dependent DNA polymerase activity of recombinant HIV-1 p66/p51 reverse transcriptase Y188L mutant assessed as inhibition of [3H]dTTP incorporation using poly(rA)/oligo(dT) as templates incubated for 15 mins by MicroBeta scintillation counting method; set-up: species or system Human immunodeficiency virus 1
[13] = Inhibition of RNA-dependent DNA polymerase activity of recombinant HIV-1 p66/p51 reverse transcriptase K103N/Y181C mutant assessed as inhibition of [3H]dTTP incorporation using poly(rA)/oligo(dT) as templates incubated for 15 mins by MicroBeta scintillation counting method; set-up: species or system Human immunodeficiency virus 1
[14] = system: Human immunodeficiency virus 1; assay: Resistance index, ratio of EC50 for antiviral activity against HIV1 harboring RT Y181C mutant infected in human MT4 cells to EC50 for antiviral activity against HIV1 NL4-3 infected in human MT4 cells; assay type: functional
[15] = system: Human immunodeficiency virus 1; assay: Resistance index, ratio of EC50 for antiviral activity against HIV1 harboring RT K103N mutant infected in human MT4 cells to EC50 for antiviral activity against HIV1 NL4-3 infected in human MT4 cells; assay type: functional

Row | SMILES | EC50 [1] | CC50 [2] | selectivity ratio [3] | EC50 [4] | EC50 [5] | EC50 [6] | EC50 [7] | Ratio EC50 [8] | Ratio EC50 [9] | IC50 [10] | IC50 [11] | IC50 [12] | IC50 [13] | Ratio EC50 [14] | Ratio EC50 [15]
1 | Cc1cc(C)cc(S(=O)(=O)c2c(C(=O)NCc3cc(O)ncn3)[nH]c3ccc(Cl)cc23)c1 | < 0.7 nM | > 53.1 µM | > 75800 | < 0.7 nM | 0.7 nM | 106 nM | 14300 nM | >151 | >20385 | – | – | – | – | – | –
2 | Cc1ccnc2c1NC(=O)c1cccnc1N2C1CC1 [NEVIRAPINE] | 112 nM | > 18.8 µM | – | > 3760 nM | > 3760 nM | > 3760 nM | > 3760 nM | – | – | – | – | – | – | – | –
3 | Cc1cc(C)cc(S(=O)(=O)c2c(C(=O)NCc3ccc(O)cc3)[nH]c3ccc(Cl)cc23)c1 | < 0.7 nM | 6.25 µM | > 8930 | < 0.7 nM | < 0.7 nM | 661 nM | 704 nM | >944 | >1006 | 61 nM | 45 nM | 50 nM | 628 nM | – | –
4 | Cc1cc(C)cc(S(=O)(=O)c2c(C(=O)NCc3ccc(O)c(O)c3)[nH]c3ccc(Cl)cc23)c1 | < 0.7 nM | 18.3 µM | > 26200 | < 0.7 nM | 4.1 nM | 70 nM | 3240 nM | >100 | >4624 | – | – | – | – | >5.9 | –
5 | Cc1cc(C)cc(S(=O)(=O)c2c(C(=O)NC(C)c3ccccc3O)[nH]c3ccc(Cl)cc23)c1 (configuration not stated) | < 0.7 nM | 21.8 µM | 31100 | < 0.7 nM | 19 nM | 190 nM | 662 nM | >270 | >946 | – | – | – | – | >27 | –
6 | Cc1cc(C)cc(S(=O)(=O)c2c(C(=O)Nc3ccccc3O)[nH]c3ccc(Cl)cc23)c1 | < 0.7 nM | 19.7 µM | > 28200 | > 0.7 nM | 20 nM | 4810 nM | > 19700 nM | >6881 | >28166 | – | – | – | – | >28 | –
7 | Cc1cc(C)cc(S(=O)(=O)c2c(C(=O)NCN3CCCC3)[nH]c3ccc(Cl)cc23)c1 | – | – | – | – | – | – | 300 nM | – | – | – | – | – | – | – | –
8 | Cc1cc(C)cc(S(=O)(=O)c2c(C(=O)NC(C)C(N)=O)[nH]c3ccc(Cl)cc23)c1 (configuration not stated) | – | – | – | – | – | – | 700 nM | – | – | – | – | – | – | – | –
9 | Cc1cc(C#N)cc(C)c1Oc1nc(Nc2ccc(C#N)cc2)nc(N)c1Br [ETRAVIRINE] | 16.1 nM | > 23 µM | – | 0.7 nM | 18 nM | 16 nM | 4.6 nM | – | – | – | – | 164 nM | 97 nM | – | –
10 | Cc1cc(C)cc(S(=O)(=O)c2c(C(=O)NCc3cccc(O)c3)[nH]c3ccccc23)c1 | < 0.7 nM | > 5.2 µM | > 3640 | < 0.7 nM | 21 nM | 1270 nM | 1810 nM | >1808 | >2584 | – | – | – | – | >30 | –
11 | Cc1cc(C)cc(S(=O)(=O)c2c(C(=O)Nc3ccc(CO)cc3)[nH]c3ccc(Cl)cc23)c1 | < 0.7 nM | 39.6 µM | > 56600 | < 0.7 nM | 22 nM | – | 19500 nM | – | >27904 | – | – | – | – | >31 | –
12 | Cc1cc(C)cc(S(=O)(=O)c2c(C(=O)NC(C)C(=O)NCc3ccccc3O)[nH]c3ccc(Cl)cc23)c1 (configuration not stated) | < 0.6 nM | 14.4 µM | > 23900 | 37 nM | 41 nM | 6560 nM | 5240 nM | 10925 | >8733 | – | – | – | – | >68 | >62
